Data set [1] concerns HIV-1 (IIIB), HIV-1 (NL4.3). As to the kind of experiment: microbe, parasite or virus in culture. The data set is classed as cell-based. The conditions noted are these: for EC50: Human immunodeficiency virus 1, IIIB, MT4, MT-4 cells, 50% protection against HIV-induced cytopathogenic effect, MTT; for SI: selectivity index, ratio of CC50 to EC50. The procedure: (§1) A rapid and automated assay procedure was used for the in vitro evaluation of anti-HIV agents. An HTLV-1 transformed T4-cell line MT-4, which was previously shown to be highly susceptible to and permissive for HIV infection, served as the target cell line. Inhibition of the HIV-induced cytopathogenic effect was used as the end point. The viabitlity of both HIV- and mock-infected cells was assessed spectrophotometrically via in situ reduction of 3-(4,5-dimethylthiazol-2-yl)-2,5-diphenyltetrazolium bromide (MTT). The 50% cytotoxic concentration (CC50 in μM or μg/ml) was defined as the concentration of compound that reduced the absorbance of the mock-infected control sample by 50%. The percent protection achieved by the compound in HIV-infected cells was calculated by the following formula:
(§2) [formula] whereby (ODT)HIV is the optical density measured with a given concentration of the test compound in HIV-infected cells; (ODC)HIV is the optical density measured for the control untreated HIV-infected cells; (ODC)MOCK is the optical density measured for the control untreated mock-infected cells; all optical density values were determined at 540 nm. The dose achieving 50% protection according to the above formula was defined as the 50% inhibitory concentration (EC50 in μM or μg/ml). The ratio of CC50 to EC50 was defined as the selectivity index (SI). […] Examples of inhibition of cell proliferation by particular compounds of the invention can be found by looking at the respective CC50 values in the MT-4 cell line. Cells:
(§3) MT-4 cells (Miyoshi et al., 1982) were grown and maintained in RPMI 1640 medium supplemented with 10% heat-inactivated fetal calf serum, 2 mM I-glutamine, 0.1% sodium bicarbonate, and 20 μg of gentamicin per ml. Alternatively, the MT-4 cells may also be grown in RPMI 1640 medium supplemented with 10% FCS and 20 μg/ml of gentamicin (RPMI-complete).
The HIV-1 (IIIB) strain (Popovic et al., 1984) as well as the HIV-1 (NL4.3) strain (Adachi et al., J. Virol. 59, 284-291 (1986)) were used.
Background: Cytopathic effects are the visible damage that an infection or toxin causes in cultured cells.

In data set [2] the target is LEDGF/p75-HIV-1 integrase interaction (Human immunodeficiency virus type 1 group M subtype B (isolate HXB2) (HIV-1), UniProt P04585). As to the kind of experiment: AlphaScreen assay of LEDGF-integrase interaction inhibition. The data set is classed as binding. On the procedure:
Alphascreen Assay to Measure the LEDGF-Integrase Interaction Inhibitory Activity of Compounds of the Invention
The AlphaScreen assay was performed according to the manufacturer's protocol (Perkin Elmer, Benelux). Reactions were performed in 25 μl final volume in 384-well Optiwell™ microtiter plates (Perkin Elmer). The reaction buffer contained 25 mM Tris-HCl (pH 7.4), 150 mM NaCl, 1 mM MgCl2, 0.01% (v/v) Tween-20 and 0.1% (w/v) bovine serum albumin. His6-tagged integrase (300 nM final concentration) was incubated with the compounds for 30 min at 4° C. The compounds were added at varying concentrations spanning a wide range from 0.1 up to 100 μM. Afterwards 100 nM flag-LEDGF/p75 was added and incubation was prolonged for an additional hour at 4° C. Subsequently 5 μl of Ni-chelate-coated acceptor beads and 5 μl anti-flag donor beads were added to a final concentration of 20 μg/ml of both beads. Proteins and beads were incubated for 1 h at 30° C. in order to allow association to occur. Exposure of the reaction to direct light was omitted as much as possible and the emission of light from the acceptor beads was measured in the EnVision plate reader (Perkin Elmer, Benelux) and analyzed using the EnVision manager software. IN/DNA binding was analyzed in a similar setting using His6-tagged integrase (1 μM final concentration) and an oligodeoxynucleotide mimicking the IN ELISA oligonucleotide substrate (30 nM final concentration). Counterscreens with JPO2 or PogZ, respectively, were essentially performed as described previously.
His6-tagged HIV-1 integrase, 3xflag-tagged LEDGF/p75, MBP-JPO2 and MBP-PogZ were purified for AlphaScreen applications as described previously 23,25,56.

Data set [3] is described as follows: Cytotoxicity in mock-infected MT-4 cells (MTT). The conditions noted are these: human, 50% cytotoxic concentration. The data set is classed as cell-based. On the procedure:
as §1, §2, §3

The mark [4] stands for this setting: His6-tagged integrase 300 nM, flag-LEDGF/p75 100 nM, read-out: Alphascreen IC50.

The results in this text go back to patent US8785638B2, “Thieno [2, 3-B] pyridine derivatives as viral replication inhibitors” (Katholieke Universiteit Leuven, priority 2009, dated 2014).

Where two headings read alike, the source gives them in different places. Some results are limits rather than exact numbers.

As usually defined, the EC50 is the concentration at which the effect is half-maximal. Usually IC50 stands for the concentration that gives 50% inhibition. The term CC50 denotes the concentration at which the toxic effect on the cells reaches its halfway point. In the case of `CCCC(C(=O)O)c1c(C)nc2sc3c(c2c1-c1ccc2c(c1)OCO2)CCCC3` (centres unmarked) [Cpd 146, 2-[2-Methyl-4-(benzo[d][1,3]dioxol-5-yl)-5,6,7,8-tetrahydro[1]benzothieno[2,3-b]pyridin-3-yl]pentanoic acid], in data set [1], the midpoint of the response, the EC50, lay at 2.98 µM and the SI is 42. In data set [2] (setting [4]), the IC50 came to 4.76 µM. This compound also returned a cytotoxic concentration (CC50) in data set [3] of 124 µM.

In the case of `CCCC(c1c(C)nc2sc3c(c2c1-c1ccc(C)cc1)CCCC3)C1SC(=O)NC1=O` (centres unmarked) [Cpd 182], the 50% effective concentration (EC50) in data set [1] is over 27.3 µM. The IC50 in data set [2] is about 80 µM. The cytotoxic concentration (CC50) in data set [3] was determined as 27.3 µM.

`Cc1ccc(-c2c(C(CCc3ccccc3)C(=O)O)c(C)nc3sc4c(c23)CCCC4)cc1` (centres unmarked) [Cpd 155, 2-[2-Methyl-4-(p-tolyl)-5,6,7,8-tetrahydro[1]benzothieno[2,3-b]pyridin-3-yl]-4-phenylbutanoic acid]: the EC50 in data set [1] was over 22 µM. The IC50 in data set [2] (setting [4]) turned out to be 81.9 µM. In data set [3], this compound returned a CC50 of 22 µM.

Take `CCCC(C(N)=O)c1c(C)nc2sc3c(c2c1-c1ccc(C)cc1)CCCC3` (centres unmarked) [Cpd 167, 2-[2-Methyl-4-p-tolyl-5,6,7,8-tetrahydro[1]benzothieno[2,3-b]pyridin-3-yl]pentanamide]: in data set [1], the EC50 was over 26.1 µM. Also, the half-inhibitory concentration (IC50) in data set [2] (setting [4]) was determined as 63.7 µM. It took 26.1 µM to reach half-maximal cytotoxicity in data set [3] (CC50).

Consider `CCCC(C(=O)O)c1c(C)nc2sc3c(c2c1-c1ccc(C)cc1)CCOC3` (centres unmarked) [Cpd 133, 2-[2-Methyl-4-(p-tolyl)-5,8-dihydro-6H-7-oxa-9-thia-1-aza-fluoren-3-yl]pentanoic acid], for which, in data set [1], it took 18 µM to reach a half-maximal effect (EC50) and the SI is listed as 8. In data set [2] (setting [4]), the IC50 amounted to 7.8 µM. Moreover, it took 165 µM to reach half-maximal cytotoxicity in data set [3] (CC50).

Compound `CCCC(C(=O)O)c1c(C)nc2sc3c(c2c1-c1ccco1)CCC3` (centres unmarked) [Cpd 129, 2-[2-Methyl-4-(2-furyl)-6,7-dihydro-5H-cyclopenta[4,5]thieno[2,3-b]pyridin-3-yl]pentanoic acid] came in with an EC50 in data set [1] of over 130 µM. The IC50 in data set [2] (setting [4]) was determined as 48 µM. For the same compound, in data set [3], the CC50 turned out to be 130 µM.

Consider `Cc1ccc(-c2c(C(CC3CC3)C(=O)O)c(C)nc3sc4c(c23)CCCC4)cc1` (centres unmarked) [Cpd 165, 2-[2-Methyl-4-(p-tolyl)-5,6,7,8-tetrahydro[1]benzothieno[2,3-b]pyridin-3-yl]-3-cyclopropylpropanoic acid], for which, in data set [1], it took 0.867 µM to reach a half-maximal effect (EC50) and the SI was found to be 102. Besides, the half-maximal inhibitory concentration (IC50) in data set [2] (setting [4]) was under 1 µM. The compound also came in with a CC50 in data set [3] of 89 µM.

On to `CCOC(C(=O)O)c1c(C)nc2sc3c(c2c1-c1ccc(C)cc1)CCCC3` (centres unmarked) [Cpd 171, 2-[2-Methyl-4-p-tolyl-5,6,7,8-tetrahydro[1]benzothieno[2,3-b]pyridin-3-yl]-2-ethoxyacetic acid], for which, in data set [1], the EC50 was 0.112 µM and the SI was 1166. The IC50 in data set [2] (setting [4]) worked out at 1.21 µM. For the same compound, the CC50 in data set [3] was determined as 130 µM.

As to `CCCC(C(=O)O)c1c(C)nc2scc(C)c2c1-c1ccc(C)cc1` (centres unmarked) [Cpd 118, 2-(3,6-Dimethyl-4-p-tolylthieno[2,3-b]pyridin-5-yl)pentanoic acid], the EC50 in data set [1] was over 50.2 µM. Also, the IC50 in data set [2] (setting [4]) came out at 23.4 µM. In data set [3], this compound registered a CC50 of 50.2 µM.

In data set [1], `CCc1sc2nc(C)c(CC(=O)O)c(-c3ccc(C)cc3)c2c1C` [Cpd 105, (2-Ethyl-3,6-dimethyl-4-p-tolylthieno[2,3-b]pyridin-5-yl)acetic acid] showed an EC50 of over 62.7 µM. For the same compound, the IC50 in data set [2] (setting [4]) came out at 64.3 µM. In data set [3], this compound yielded a CC50 of 62.7 µM.

Consider `CCCC(C(=O)O)c1c(C)nc2sc3c(c2c1-c1ccc(C)cc1)CCCC3` (centres unmarked) [Cpd 113, 2-[2-Methyl-4-p-tolyl-5,6,7,8-tetrahydro[1]benzothieno[2,3-b]pyridin-3-yl]pentanoic acid], for which, in data set [1], the response was half-maximal at 0.44 µM (EC50) and the SI is recorded as 183. Moreover, the IC50 in data set [2] (setting [4]) came to 0.75 µM. The compound also showed a CC50 in data set [3] of 80.6 µM.

As for `CCCC(C(=O)O)c1c(C)nc2sc(CC)c(C)c2c1-c1ccc(C)cc1` (centres unmarked) [Cpd 111, 2-(2-Ethyl-3,6-dimethyl-4-p-tolylthieno[2,3-b]pyridin-5-yl)pentanoic acid], in data set [1], the EC50 was 1.28 µM and the SI was 43. Besides, in data set [3], it took 54.4 µM to reach half-maximal cytotoxicity (CC50).
